28 compounds from paper PMC7158045 (BMC Plant Biology, 2020) can be followed below.

Assay in all cases: biochemical
For experiment [1], the target named is T1, ZmDRIK1-K217-P492 (Zea mays, UniProt C0P4K9).
T1 construct: kinase domain, K217-P492
T1 sequence (C0P4K9 1-514): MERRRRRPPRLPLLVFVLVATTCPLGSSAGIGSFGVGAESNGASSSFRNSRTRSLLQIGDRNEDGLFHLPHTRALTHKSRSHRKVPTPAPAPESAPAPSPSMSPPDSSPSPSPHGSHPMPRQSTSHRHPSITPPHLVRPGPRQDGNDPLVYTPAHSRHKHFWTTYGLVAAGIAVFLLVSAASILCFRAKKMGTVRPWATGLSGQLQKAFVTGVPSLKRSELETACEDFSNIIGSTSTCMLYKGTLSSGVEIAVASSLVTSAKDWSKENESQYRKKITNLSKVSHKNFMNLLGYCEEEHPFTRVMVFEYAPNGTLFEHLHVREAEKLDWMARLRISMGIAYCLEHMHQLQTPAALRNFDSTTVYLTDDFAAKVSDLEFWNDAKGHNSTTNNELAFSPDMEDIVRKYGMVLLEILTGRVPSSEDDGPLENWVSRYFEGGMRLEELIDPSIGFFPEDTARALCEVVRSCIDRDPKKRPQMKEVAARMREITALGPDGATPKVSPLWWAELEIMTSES
As to conditions: read-out: dTm B, sheet ZmDRIK1-K217-P492;; DSF, Boltzmann fit, 0.1% DMSO.

Experiment [2] concerns the target T2, ZmDRIK1-K217-S514 (Zea mays, UniProt C0P4K9).
T2 construct: kinase domain, K217-S514
T2 sequence (C0P4K9 1-514): T1 sequence (C0P4K9 1-514)
The note with it: read-out: dTm B, sheet ZmDRIK1-K217-S514;; DSF, Boltzmann fit, 0.1% DMSO.

Experiment [3] concerns the target T3, ZmDRIK1-R187-P492 (Zea mays, UniProt C0P4K9).
T3 construct: kinase domain, R187-P492
T3 sequence (C0P4K9 1-514): T1 sequence (C0P4K9 1-514)
The note with it: read-out: dTm B, DSF, Boltzmann fit, 0.1% DMSO.

Experiment [4] deals with T4, ZmDRIK1 (DROUGHT RESPONSIVE INACTIVE KINASE 1), kinase domain (Zea mays, UniProt C0P4K9).
T4 construct: gene ZEAMMB73_Zm00001d028770; ZmDRIK1-KD R187-S514 (kinase domain)
T4 sequence (C0P4K9 187-514): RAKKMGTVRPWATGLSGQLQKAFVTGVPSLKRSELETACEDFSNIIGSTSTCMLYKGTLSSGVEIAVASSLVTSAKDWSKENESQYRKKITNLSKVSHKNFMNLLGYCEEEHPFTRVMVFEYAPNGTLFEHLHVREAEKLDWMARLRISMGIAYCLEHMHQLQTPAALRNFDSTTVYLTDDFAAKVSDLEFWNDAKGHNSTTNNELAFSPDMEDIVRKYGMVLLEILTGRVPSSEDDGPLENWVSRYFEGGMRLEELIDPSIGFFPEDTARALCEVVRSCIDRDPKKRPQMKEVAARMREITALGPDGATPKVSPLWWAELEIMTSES
As to conditions: read-out: dTm B, sheet ZmDRIK1-R187-S514;; DSF, Boltzmann fit, 0.1% DMSO.

For the compound `CC(C)(C)NS(=O)(=O)c1cncc(-c2cc(F)c3nc(N)nn3c2)c1` [CZC24832], the ΔTm at 10 µM in experiment [1] was -1.04 °C; in experiment [2] it was -0.339 °C; in experiment [3], -0.444 °C; in experiment [4] it was -0.757 °C.
In the same order, the values of `C=CC(=O)Nc1cccc(Nc2nc(Nc3ccc(NC4CN(CCF)C4)cc3OC)ncc2C(F)(F)F)c1` [CNX-2006] are -1.15 °C, -0.646 °C, -0.528 °C and -0.903 °C.
For `C[C@H]1[C@H](C)CC[C@]2(C(=O)O)CC[C@]3(C)C(=CC[C@@H]4[C@@]5(C)C[C@@H](O)[C@H](O)[C@@](C)(CO)[C@@H]5CC[C@]43C)[C@H]12` [Asiatic Acid], the ΔTm at 10 µM in experiment [1] is -1.33 °C; in experiment [2], -0.368 °C; in experiment [3], -0.41 °C; in experiment [4], -0.753 °C.
The matching figures for `CC1(C)CNc2cc(NC(=O)c3cccnc3NCc3ccncc3)ccc21` [Motesanib Diphosphate (AMG-706)]: -1.01 °C, -0.221 °C, -0.24 °C and -0.808 °C.
In the same order, the values of `Cc1[nH]nc2ccc(-c3cncc(OC[C@@H](N)Cc4ccccc4)c3)cc12` [A-674563] are -0.898 °C, -0.328 °C, -0.417 °C and -0.493 °C.
On to `C[C@@H](Oc1cc(-n2cnc3ccc(CN4CCN(C)CC4)cc32)sc1C(N)=O)c1ccccc1C(F)(F)F` [GSK461364], for which the ΔTm at 10 µM is -0.796 °C in experiment [1], -0.15 °C in experiment [2], -0.19 °C in experiment [3] and -1.05 °C in experiment [4].
On to `FC(F)(F)c1ccc(/C=C/c2nc(COc3ccc(CCCCn4ccnn4)cc3)co2)cc1` [Mubritinib (TAK 165)], for which the ΔTm at 10 µM was -0.803 °C in experiment [1], -0.334 °C in experiment [2], -0.156 °C in experiment [3] and -0.964 °C in experiment [4].
Turning to `O=C(Nc1nc2cccc(-c3ccc(CN4CCS(=O)(=O)CC4)cc3)n2n1)C1CC1` [Filgotinib (GLPG0634)], the ΔTm at 10 µM in experiment [1] is -1.16 °C; in experiment [2], -0.594 °C; in experiment [3], -0.607 °C; in experiment [4] it was -0.878 °C.
Consider `COC(=O)[C@]12CCC(C)(C)C[C@H]1[C@H]1C(=O)C=C3[C@@]4(C)C=C(C#N)C(=O)C(C)(C)[C@@H]4CC[C@@]3(C)[C@]1(C)CC2` [Bardoxolone Methyl], for which the ΔTm at 10 µM in experiment [1] is -4.07 °C; in experiment [2], -1.7 °C; in experiment [3] it was -1.1 °C; in experiment [4], -2.89 °C.
In the case of `CNc1nc(-c2ccc3c(N)n[nH]c3c2)cc(N2C[C@@H](C(=O)NC3CCCCC3)CC[C@H]2C)n1` [GSK2334470], the ΔTm at 10 µM is -0.636 °C in experiment [1], -0.431 °C in experiment [2], -0.4 °C in experiment [3] and -0.8 °C in experiment [4].
In the same order, the values of `C=CC(=O)Nc1ccc2ncnc(Nc3cccc(Br)c3)c2c1` [PD168393] are -0.0923 °C, 0.721 °C, 0.724 °C and -0.108 °C.
In the same order, the values of `Cc1ncc(-c2ccnc(Nc3ccc(S(C)(=O)=O)cc3)n2)n1C(C)C` [AZD5438] are -1.24 °C, -0.394 °C, -0.417 °C and -0.576 °C.
`CCCS(=O)(=O)Nc1ccc(F)c(C(=O)c2c[nH]c3ncc(Cl)cc23)c1F` [PLX-4720]: the ΔTm at 10 µM in experiment [1] is -0.653 °C; in experiment [2], -0.478 °C; in experiment [3] it was -0.12 °C; in experiment [4], -1.27 °C.
In the same order, the values of `CNC(=O)c1cc(Oc2ccc(NC(=O)Nc3cc(C(C)(C)C)nn3-c3ccc4ncccc4c3)c(F)c2)ccn1` [DCC-2036 (Rebastinib)] are -1.25 °C, -0.422 °C, -0.261 °C and -1.41 °C.
In the same order, the values of `O=C(/C=C/c1ccc(O)c(O)c1)c1ccc(O)cc1O` [Butein] are 1.78 °C, 0.982 °C, 0.882 °C and 0.686 °C.
In the same order, the values of `CCOc1cc2ncc(C#N)c(Nc3ccc(F)c(Cl)c3)c2cc1NC(=O)/C=C/CN(C)C` [Pelitinib (EKB-569)] are -0.854 °C, -0.496 °C, -0.494 °C and -0.77 °C.
With `Cc1ccc(S(=O)(=O)/C=C/C#N)cc1` [BAY 11-7082], the ΔTm at 10 µM in experiment [1] is -2.48 °C; in experiment [2] it was -0.963 °C; in experiment [3] it was -1.15 °C; in experiment [4], -1.51 °C.
The matching figures for `Oc1ccc2ccccc2c1SSc1c(O)ccc2ccccc12` [IPA-3]: -15.1 °C, -15 °C, -15.4 °C and -20.6 °C.
The matching figures for `C=CC(=O)Nc1ccc2ncnc(Nc3ccc(OCc4cccc(F)c4)c(Cl)c3)c2c1` [AST-1306]: -1.48 °C, -1.18 °C, -5.11 °C and -7.98 °C.
In the same order, the values of `COc1ccc(C(=O)Nc2sc3c(c2C(N)=O)CCCC3)cc1OC` [TCS 359] are -0.245 °C, -0.549 °C, -0.318 °C and 0.606 °C.
Take `COc1ccc(-c2cc3c(C)nc(N)nc3n([C@H]3CC[C@H](OCCO)CC3)c2=O)cn1` [PF-04691502]: the ΔTm at 10 µM is -0.953 °C in experiment [1], -0.31 °C in experiment [2], -0.18 °C in experiment [3] and -0.814 °C in experiment [4].
The matching figures for `C#Cc1cccc(Nc2ncnc3cc4c(cc23)OCCOCCOCCO4)c1` [Icotinib]: -1.1 °C, -0.34 °C, -0.388 °C and -0.618 °C.
In the case of `CN([C@@H](Cc1ccc(OS(=O)(=O)c2cccc3cnccc23)cc1)C(=O)N1CCN(c2ccccc2)CC1)S(=O)(=O)c1cccc2cnccc12` [KN-62], the ΔTm at 10 µM was -1.79 °C in experiment [1], -0.945 °C in experiment [2], -1.15 °C in experiment [3] and -1.39 °C in experiment [4].
In the case of `O=C(Nc1ccc(-c2ccnc(Nc3ccc(N4CCOCC4)cc3)n2)cc1)C1CCCN1` (stereo not shown) [XL019], the ΔTm at 10 µM is -0.95 °C in experiment [1], -0.368 °C in experiment [2], -0.478 °C in experiment [3] and -0.481 °C in experiment [4].
The matching figures for `CO[C@H]1C[C@@H]2CC[C@@H](C)[C@@](O)(O2)C(=O)C(=O)N2CCCC[C@H]2C(=O)O[C@H]([C@H](C)C[C@@H]2CC[C@@H](O)[C@H](OC)C2)CC(=O)[C@H](C)/C=C(\C)[C@@H](O)[C@@H](OC)C(=O)[C@H](C)C[C@H](C)/C=C/C=C/C=C/1C` [Rapamycin (Sirolimus)]: -1.45 °C, -0.483 °C, -1.03 °C and -1.41 °C.
With `N#CC(C#N)=Cc1ccc(O)c(O)c1` [AG-18], the ΔTm at 10 µM in experiment [1] is -0.987 °C; in experiment [2], -0.556 °C; in experiment [3], -0.457 °C; in experiment [4], -1.16 °C.
In the same order, the values of `CCCCOc1c(C(=O)c2c(F)cc(C)cc2F)c[nH]c2nncc1-2` [BMS-265246] are -1.05 °C, -0.226 °C, -0.249 °C and -0.676 °C.
Regarding `CO[C@H]1C[C@@H]2CC[C@@H](C)[C@@](O)(O2)C(=O)C(=O)N2CCCC[C@H]2C(=O)O[C@H]([C@H](C)C[C@@H]2CC[C@@H](OC(=O)C(C)(CO)CO)[C@H](OC)C2)CC(=O)[C@H](C)/C=C(\C)[C@@H](O)[C@@H](OC)C(=O)[C@H](C)C[C@H](C)/C=C/C=C/C=C/1C` [Temsirolimus (CCI-779)], the ΔTm at 10 µM is -1.36 °C in experiment [1], -0.361 °C in experiment [2], -0.393 °C in experiment [3] and -2.07 °C in experiment [4].
